Measurements reported in ChEMBL document CHEMBL1201862, “PubChem BioAssay data set” (2004).
Calls of active or inactive are those of the source.

Assays:
[1] = biological target: T1, Eukaryotic translation initiation factor 2-alpha kinase 3 (Homo sapiens, UniProt Q9NZJ5); experiment: Dose response cell-based high-throughput screening assay to measure PERK inhibition. [Related pubchem assays: 1416 ]; assay type: functional
T1 sequence (Q9NZJ5 whole entry): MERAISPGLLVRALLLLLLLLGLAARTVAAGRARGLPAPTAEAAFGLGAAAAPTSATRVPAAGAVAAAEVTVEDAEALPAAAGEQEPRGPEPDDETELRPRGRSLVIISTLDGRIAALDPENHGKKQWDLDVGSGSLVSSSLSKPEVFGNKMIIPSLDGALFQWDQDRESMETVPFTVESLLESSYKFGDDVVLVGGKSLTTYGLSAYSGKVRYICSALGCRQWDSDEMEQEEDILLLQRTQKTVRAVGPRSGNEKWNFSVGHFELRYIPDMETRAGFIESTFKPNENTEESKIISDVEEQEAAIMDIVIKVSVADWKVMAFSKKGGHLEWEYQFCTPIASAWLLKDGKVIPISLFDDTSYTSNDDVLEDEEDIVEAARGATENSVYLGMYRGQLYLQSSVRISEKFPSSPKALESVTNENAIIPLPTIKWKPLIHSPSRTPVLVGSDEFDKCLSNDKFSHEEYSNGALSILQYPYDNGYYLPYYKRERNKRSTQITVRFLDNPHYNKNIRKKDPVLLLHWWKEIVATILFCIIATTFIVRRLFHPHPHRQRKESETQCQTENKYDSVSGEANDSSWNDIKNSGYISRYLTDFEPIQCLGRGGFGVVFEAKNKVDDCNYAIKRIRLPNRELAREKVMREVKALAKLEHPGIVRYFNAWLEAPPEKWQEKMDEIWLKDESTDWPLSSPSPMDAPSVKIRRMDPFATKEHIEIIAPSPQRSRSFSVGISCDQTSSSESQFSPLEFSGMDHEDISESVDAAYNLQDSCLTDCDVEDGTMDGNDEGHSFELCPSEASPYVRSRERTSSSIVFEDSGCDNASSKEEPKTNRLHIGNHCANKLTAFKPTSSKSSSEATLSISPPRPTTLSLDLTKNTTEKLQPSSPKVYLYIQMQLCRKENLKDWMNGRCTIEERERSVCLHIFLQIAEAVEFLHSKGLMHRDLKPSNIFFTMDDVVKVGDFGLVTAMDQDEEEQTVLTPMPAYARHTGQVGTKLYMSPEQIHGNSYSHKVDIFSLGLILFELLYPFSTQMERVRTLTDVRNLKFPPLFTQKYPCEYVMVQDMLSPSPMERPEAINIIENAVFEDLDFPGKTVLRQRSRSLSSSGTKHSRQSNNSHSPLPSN

[2] = biological target: T1, Eukaryotic translation initiation factor 2-alpha kinase 3; experiment: Counterscreen assay for PERK inhibitors: Dose response cell-based high throughput screening assay to measure inhibition of PERK at 6 hours. [Related pubchem assays: 1522, 1416 ]; assay type: functional
[3] = Luminescence Cell-Based Dose Response HTS to Identify Activators of Luciferase Translation or Activity in H4 […] Cells. [Related pubchem assays: 1829 (Project Summary), 1814 (Primary HTS)]; assay type: functional
HeLa = experiment: HeLa cell cytotoxicity, dose response, cytotoxicity control for MITF activator project, CellTiter-Glo luminescence, cherry-pick samples (AID 540259); assay type: functional, cell-based; conditions: Homo sapiens
[4] = Luminescence Cell-Based Dose Confirmation HTS to Identify Activators of 5'UTR Stem-Loop Driven Alpha-Synuclein mRNA Translation in H4 Neuroglioblastoma Cells. [Related pubchem assays: 1829 (Project Summary), 1814 (Primary HTS)]; assay type: functional
H4 = experiment: Luminescence Cell-Based Dose Response HTS to Identify Activators of 5'UTR Stem-Loop Driven Prion Protein mRNA Translation in H4 Neuroglioblastoma Cells. [Related pubchem assays: 1829 (Project Summary), 1814 (Primary HTS)]; assay type: functional; conditions: Homo sapiens
[5] = Luminescence Cell-Based Dose Confirmation to Identify Activators of 5'UTR Stem-Loop Driven Alpha-Synuclein mRNA Translation in H4 Neuroglioblastoma Cells. [Related pubchem assays: 1829 (Project Summary), 1814 (Primary HTS)]; assay type: functional
[6] = Luminescence Cell-Based Dose Response to Identify Activators of 5'UTR Stem-Loop Driven Prion Protein mRNA Translation in H4-C Neuroglioblastoma Cells. [Related pubchem assays: 1829 (Project Summary), 1814 (Primary HTS)]; assay type: functional
[7] = Luminescence Cell-Based Dose Response to Identify Activators of Luciferase Translation or Activity in H4-C Neuroglioblastoma Cells. [Related pubchem assays: 1829 (Project Summary), 1814 (Primary HTS)]; assay type: functional
[8] = inhibitors of intracellular T. cruzi replication, confirmation, NIH3T3 host cells, beta-gal luminescence (AID 2044); assay type: functional, cell-based;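 also: intracellular parasites grown in NIH/3T3 mouse fibroblasts as host cells; luminescent beta-galactosidase reporter signal from transgenic T. cruzi replicating inside host cells; inhibitors lower the luminescence signal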
[9] = cytotoxicity toward NIH3T3 fibroblasts, dose response, counter-screen, cell-based, ATP luminescence, mouse fibroblasts (AID 2010); assay type: functional;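 also: cells exposed to compound for about 90 hours before reading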
Fatty acid synthase [10] = biological target: T2, Fatty acid synthase (Homo sapiens, UniProt P49327); experiment: FAS thioesterase domain inhibitors, dose response, biochemical, endpoint fluorescence intensity, uHTS hits (AID 624327); assay type: functional;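 also: fluorescence from hydrolysis of an O-methyl fluorescein acyl ester substrate by the enzyme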
Fatty acid synthase [11] = biological target: T2, Fatty acid synthase; experiment: FAS thioesterase domain inhibitors, dose response, biochemical, kinetic fluorescence intensity (AID 624326); assay type: functional;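 also: rate of fluorescence rise from hydrolysis of a fluorogenic O-methyl fluorescein ester substrate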
[12] = biological target: Peroxisome proliferator-activated receptor gamma/Nuclear receptor coactivator 1 (Homo sapiens, UniProt P37231); assay type: functional;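 also: agonist potency as compounds enhance coactivator SRC-1 recruitment to PPARgamma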
[13] = biological target: Peroxisome proliferator-activated receptor gamma/Nuclear receptor coactivator 2 (Homo sapiens, UniProt P37231); assay type: functional;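 also: agonist potency for raising coactivator recruitment to the receptor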
[14] = biological target: Peroxisome proliferator-activated receptor gamma/Nuclear receptor coactivator 3 (Homo sapiens, UniProt P37231); assay type: functional;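 also: agonist potency for raising coactivator recruitment to the receptor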
Albumin = Albumin (Bos taurus, UniProt P02769); experiment: Counterscreen for inhibitors of T-cell receptor (TCR)-CD3 interaction: Fluorescence-based biochemical high throughput dose response assay to identify inhibitors of T-cell receptor (TCR)-CD3 interaction using a TAMRA-labeled BSA probe.; assay type: functional
INS1 = experiment: beta cell apoptosis inhibitors, cytokine rescue, dose response, luminescence, retest (AID 449756); assay type: functional, cell-based; conditions: Rattus norvegicus;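 also: cell death triggered by IL-1 beta plus TNF-alpha plus IFN-gamma mixture; protective hits raise ATP signal compared with cytokine alone wells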
[15] = cytotoxicity in HPDE-C7 cells, cell-based, fluorescence, HTS (AID 430); assay type: functional; conditions: Homo sapiens
[16] = cytotoxicity in KRAS-transformed pancreatic duct cells, primary screen, cell-based, fluorescence, HTS (AID 431); assay type: functional; conditions: Homo sapiens;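 also: cell line used: HPDE-C7K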
[17] = NIH-3T3 fibroblast cytotoxicity, dose response, cytotoxicity control, cell-based, fluorescence, Alamar Blue, secondary assay (AID 2327); assay type: functional;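 also: NIH-3T3 mouse fibroblasts cultured with fluconazole at 8 µg/mL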
[18] = biological target: T3, DNA repair protein RAD52 homolog (Homo sapiens, UniProt P43351); assay type: functional, biochemical
T3 sequence (P43351 whole entry): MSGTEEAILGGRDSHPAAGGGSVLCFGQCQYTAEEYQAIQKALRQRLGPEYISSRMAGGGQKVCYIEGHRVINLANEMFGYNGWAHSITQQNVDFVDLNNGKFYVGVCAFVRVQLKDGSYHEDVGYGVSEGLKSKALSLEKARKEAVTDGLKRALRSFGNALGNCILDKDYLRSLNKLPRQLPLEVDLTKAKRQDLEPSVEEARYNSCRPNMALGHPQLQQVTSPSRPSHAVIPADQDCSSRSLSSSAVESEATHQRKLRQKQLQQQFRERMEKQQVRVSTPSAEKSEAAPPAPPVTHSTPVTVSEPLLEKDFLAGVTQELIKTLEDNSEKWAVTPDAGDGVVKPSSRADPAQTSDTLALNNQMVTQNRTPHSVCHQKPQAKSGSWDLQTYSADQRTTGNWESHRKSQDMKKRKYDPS

[19] = biological target: T4, COUP transcription factor 2 (Homo sapiens, UniProt P24468); experiment: Luminescence-based cell-based high throughput dose response assay to identify inhibitors of COUP-TFII (NR2F2).; assay type: functional;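 also: HEK293 cells transiently cotransfected with COUP-TFII expression vector and reporter; luciferase reporter luminescence driven by COUP-TFII from the pX2-168 reporter plasmid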
T4 sequence (P24468 whole entry): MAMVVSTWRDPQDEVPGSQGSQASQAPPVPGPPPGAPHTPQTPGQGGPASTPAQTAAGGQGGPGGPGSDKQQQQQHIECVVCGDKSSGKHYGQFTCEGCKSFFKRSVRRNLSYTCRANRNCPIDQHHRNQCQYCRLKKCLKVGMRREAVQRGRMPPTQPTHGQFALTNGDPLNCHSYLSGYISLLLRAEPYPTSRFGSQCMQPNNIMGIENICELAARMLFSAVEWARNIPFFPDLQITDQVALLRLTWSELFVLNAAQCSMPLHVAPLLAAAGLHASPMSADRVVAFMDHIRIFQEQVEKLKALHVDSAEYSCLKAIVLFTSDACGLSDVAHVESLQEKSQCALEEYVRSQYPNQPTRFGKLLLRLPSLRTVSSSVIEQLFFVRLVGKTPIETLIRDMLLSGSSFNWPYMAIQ

[20] = C. albicans growth with fluconazole, confirmation, fluorescence, retest (AID 2467); assay type: functional, cell-based
[21] = biological target: NAD-dependent protein deacylase sirtuin-5, mitochondrial (Homo sapiens, UniProt Q9NXA8); experiment: SIRT5 desuccinylase inhibitors, dose response, biochemical, fluorescence imaging, cherry-pick, set 5 (AID 720591);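 also: desuccinylation of succinyl peptide AMC substrate read as fluorescence after trypsin release; potency of inhibitors that lower fluorescence and may act on trypsin instead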
[22] = biological target: T5, Zinc finger protein mex-5 (Caenorhabditis elegans, UniProt Q9XUB2); experiment: MEX-5/TCR-2 RNA interaction inhibitors, dose response, biochemical, C. elegans, fluorescence polarization (AID 1960)
T5 sequence (Q9XUB2 whole entry): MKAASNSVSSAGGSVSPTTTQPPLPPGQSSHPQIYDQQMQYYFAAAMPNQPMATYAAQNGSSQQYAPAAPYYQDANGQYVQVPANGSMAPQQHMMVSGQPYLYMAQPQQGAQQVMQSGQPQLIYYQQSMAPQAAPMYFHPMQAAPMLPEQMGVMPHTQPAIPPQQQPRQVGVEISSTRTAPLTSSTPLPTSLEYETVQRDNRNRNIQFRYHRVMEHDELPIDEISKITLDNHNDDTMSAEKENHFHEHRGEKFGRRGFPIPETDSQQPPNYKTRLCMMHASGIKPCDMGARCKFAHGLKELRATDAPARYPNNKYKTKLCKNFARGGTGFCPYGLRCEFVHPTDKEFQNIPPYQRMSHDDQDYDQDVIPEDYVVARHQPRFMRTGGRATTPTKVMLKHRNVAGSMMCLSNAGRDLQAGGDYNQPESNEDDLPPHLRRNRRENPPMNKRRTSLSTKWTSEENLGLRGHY

[23] = biological target: T6, RNA-binding protein pos-1 (Caenorhabditis elegans, UniProt G5EF15); experiment: inhibitors of POS-1/mex-3 RNA binding, dose response, biochemical, fluorescence polarization (AID 1964);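 also: purified POS-1 fused to maltose binding protein made in E. coli; potency of compounds blocking POS-1 binding to fluorescent RNA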
T6 sequence (G5EF15 whole entry): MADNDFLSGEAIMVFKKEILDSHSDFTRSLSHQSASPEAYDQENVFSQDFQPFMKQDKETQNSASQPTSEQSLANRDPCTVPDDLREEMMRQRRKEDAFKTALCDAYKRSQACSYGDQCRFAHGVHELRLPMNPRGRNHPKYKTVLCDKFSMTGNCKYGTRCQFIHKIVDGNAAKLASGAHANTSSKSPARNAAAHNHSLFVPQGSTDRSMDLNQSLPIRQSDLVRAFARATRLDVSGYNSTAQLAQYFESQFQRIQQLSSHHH

Sequence of Peroxisome proliferator-activated receptor gamma/Nuclear receptor coactivator 3 (P37231 whole entry): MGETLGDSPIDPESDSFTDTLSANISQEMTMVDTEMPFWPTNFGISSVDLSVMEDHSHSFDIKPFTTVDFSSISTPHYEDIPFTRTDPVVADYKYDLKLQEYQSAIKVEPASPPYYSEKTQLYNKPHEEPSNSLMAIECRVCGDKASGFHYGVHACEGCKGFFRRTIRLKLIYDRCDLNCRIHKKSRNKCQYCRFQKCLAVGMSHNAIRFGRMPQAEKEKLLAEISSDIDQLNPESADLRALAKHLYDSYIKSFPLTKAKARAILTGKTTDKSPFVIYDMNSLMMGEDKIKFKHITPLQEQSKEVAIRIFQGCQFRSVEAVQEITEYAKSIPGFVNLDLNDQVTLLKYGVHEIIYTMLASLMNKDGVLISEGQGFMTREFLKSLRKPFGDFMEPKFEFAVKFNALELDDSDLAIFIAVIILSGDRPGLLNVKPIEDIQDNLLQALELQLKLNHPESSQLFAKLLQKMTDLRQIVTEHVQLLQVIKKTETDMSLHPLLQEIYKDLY
Sequence of Peroxisome proliferator-activated receptor gamma/Nuclear receptor coactivator 3 (Q9Y6Q9 whole entry, further chain): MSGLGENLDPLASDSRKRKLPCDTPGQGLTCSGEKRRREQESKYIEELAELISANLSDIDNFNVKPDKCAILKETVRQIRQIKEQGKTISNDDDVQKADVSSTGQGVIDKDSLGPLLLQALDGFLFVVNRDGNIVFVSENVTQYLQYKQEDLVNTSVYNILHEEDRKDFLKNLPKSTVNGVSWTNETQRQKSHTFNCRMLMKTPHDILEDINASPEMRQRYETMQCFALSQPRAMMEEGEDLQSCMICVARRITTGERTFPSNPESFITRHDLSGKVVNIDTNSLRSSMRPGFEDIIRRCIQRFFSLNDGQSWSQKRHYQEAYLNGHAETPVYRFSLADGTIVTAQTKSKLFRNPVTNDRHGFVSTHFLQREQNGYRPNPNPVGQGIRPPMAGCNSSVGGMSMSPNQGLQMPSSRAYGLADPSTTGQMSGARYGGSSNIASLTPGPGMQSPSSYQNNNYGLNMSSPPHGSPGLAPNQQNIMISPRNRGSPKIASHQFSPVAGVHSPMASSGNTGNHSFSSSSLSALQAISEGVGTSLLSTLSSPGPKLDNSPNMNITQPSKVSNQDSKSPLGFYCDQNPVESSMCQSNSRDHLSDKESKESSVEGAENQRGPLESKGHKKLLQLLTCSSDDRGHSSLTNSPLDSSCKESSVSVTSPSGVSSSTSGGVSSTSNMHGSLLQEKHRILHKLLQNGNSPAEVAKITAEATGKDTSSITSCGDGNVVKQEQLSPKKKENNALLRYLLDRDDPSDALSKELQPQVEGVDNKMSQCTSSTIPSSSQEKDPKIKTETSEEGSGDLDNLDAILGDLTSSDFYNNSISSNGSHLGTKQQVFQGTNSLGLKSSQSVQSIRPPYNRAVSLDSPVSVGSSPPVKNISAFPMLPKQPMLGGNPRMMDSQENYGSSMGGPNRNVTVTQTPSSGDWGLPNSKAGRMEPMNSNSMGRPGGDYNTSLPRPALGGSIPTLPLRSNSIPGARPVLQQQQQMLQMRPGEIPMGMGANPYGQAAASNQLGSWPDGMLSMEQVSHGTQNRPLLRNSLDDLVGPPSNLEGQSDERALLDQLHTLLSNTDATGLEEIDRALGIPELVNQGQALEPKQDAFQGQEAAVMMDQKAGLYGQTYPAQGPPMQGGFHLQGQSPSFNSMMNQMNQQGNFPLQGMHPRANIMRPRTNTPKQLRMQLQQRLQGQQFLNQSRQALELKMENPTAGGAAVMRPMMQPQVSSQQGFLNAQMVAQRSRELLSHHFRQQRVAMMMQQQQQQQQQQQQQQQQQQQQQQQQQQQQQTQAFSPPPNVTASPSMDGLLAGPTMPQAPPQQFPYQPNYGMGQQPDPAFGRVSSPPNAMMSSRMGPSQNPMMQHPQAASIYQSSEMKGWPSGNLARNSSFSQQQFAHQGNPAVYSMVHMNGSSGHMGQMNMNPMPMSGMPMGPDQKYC
Sequence of Peroxisome proliferator-activated receptor gamma/Nuclear receptor coactivator 2 (P37231 whole entry): as the sequence (P37231 whole entry) above
Sequence of Peroxisome proliferator-activated receptor gamma/Nuclear receptor coactivator 2 (Q15596 whole entry, further chain): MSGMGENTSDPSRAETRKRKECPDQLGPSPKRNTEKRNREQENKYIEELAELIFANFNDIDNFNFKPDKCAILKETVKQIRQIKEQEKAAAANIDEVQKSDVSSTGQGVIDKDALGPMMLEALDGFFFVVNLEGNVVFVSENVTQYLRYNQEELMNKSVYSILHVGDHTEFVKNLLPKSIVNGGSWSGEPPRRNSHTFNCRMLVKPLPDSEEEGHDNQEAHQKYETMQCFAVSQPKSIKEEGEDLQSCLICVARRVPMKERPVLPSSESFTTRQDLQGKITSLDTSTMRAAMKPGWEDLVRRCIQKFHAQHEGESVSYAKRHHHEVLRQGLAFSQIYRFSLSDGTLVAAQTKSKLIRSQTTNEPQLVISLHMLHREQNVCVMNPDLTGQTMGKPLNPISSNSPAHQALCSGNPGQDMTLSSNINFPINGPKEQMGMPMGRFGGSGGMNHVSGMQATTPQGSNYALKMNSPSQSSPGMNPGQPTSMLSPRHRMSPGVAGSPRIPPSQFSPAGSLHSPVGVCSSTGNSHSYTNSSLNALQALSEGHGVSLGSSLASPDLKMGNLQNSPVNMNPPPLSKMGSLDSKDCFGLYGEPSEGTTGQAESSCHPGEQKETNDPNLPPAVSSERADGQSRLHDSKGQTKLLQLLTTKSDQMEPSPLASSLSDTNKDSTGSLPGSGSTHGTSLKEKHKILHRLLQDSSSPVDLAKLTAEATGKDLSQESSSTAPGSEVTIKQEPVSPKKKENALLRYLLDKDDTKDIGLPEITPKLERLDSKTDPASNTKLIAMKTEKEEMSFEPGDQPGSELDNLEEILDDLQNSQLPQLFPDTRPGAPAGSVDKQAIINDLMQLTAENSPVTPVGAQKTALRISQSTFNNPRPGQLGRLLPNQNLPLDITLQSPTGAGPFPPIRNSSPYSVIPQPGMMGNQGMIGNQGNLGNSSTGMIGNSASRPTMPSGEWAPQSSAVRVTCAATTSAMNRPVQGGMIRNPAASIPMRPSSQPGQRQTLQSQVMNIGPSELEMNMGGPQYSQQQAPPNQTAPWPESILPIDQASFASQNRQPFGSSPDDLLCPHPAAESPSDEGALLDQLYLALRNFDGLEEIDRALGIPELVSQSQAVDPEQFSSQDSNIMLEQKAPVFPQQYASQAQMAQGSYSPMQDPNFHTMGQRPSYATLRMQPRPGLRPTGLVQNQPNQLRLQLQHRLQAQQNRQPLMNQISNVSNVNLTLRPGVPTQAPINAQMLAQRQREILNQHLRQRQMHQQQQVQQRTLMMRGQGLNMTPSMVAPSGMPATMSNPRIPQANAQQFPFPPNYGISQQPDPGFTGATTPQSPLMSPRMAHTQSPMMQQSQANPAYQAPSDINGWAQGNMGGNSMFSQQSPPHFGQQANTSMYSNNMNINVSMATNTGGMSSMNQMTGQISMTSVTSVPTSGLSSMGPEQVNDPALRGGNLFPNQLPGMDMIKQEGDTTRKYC
Sequence of Albumin (P02769 whole entry): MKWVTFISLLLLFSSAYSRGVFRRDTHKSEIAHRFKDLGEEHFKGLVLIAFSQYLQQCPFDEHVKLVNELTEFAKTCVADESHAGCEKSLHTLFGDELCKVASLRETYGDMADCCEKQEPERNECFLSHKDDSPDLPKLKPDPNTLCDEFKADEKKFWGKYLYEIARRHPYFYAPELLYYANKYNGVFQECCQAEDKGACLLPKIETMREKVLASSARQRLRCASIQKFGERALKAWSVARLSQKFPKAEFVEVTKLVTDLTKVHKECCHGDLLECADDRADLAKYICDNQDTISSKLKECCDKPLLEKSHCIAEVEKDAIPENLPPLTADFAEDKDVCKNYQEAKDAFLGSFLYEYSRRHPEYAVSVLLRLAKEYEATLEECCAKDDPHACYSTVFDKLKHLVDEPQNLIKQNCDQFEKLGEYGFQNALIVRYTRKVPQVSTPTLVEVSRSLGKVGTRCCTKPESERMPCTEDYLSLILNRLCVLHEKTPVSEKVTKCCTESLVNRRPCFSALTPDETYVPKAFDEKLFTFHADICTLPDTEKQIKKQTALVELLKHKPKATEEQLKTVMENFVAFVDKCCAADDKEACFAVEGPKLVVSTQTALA
Sequence of NAD-dependent protein deacylase sirtuin-5, mitochondrial (Q9NXA8 whole entry): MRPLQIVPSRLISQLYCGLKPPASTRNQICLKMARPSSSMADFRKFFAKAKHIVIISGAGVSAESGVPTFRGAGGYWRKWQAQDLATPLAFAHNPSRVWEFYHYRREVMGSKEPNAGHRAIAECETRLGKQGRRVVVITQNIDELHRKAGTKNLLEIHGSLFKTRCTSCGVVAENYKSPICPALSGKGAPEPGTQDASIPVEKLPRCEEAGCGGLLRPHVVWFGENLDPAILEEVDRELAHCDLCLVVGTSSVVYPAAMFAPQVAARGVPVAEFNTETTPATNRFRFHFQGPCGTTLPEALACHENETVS

COc1ccc(C(=O)Cc2ccccc2)cc1OC
EC50 [1]: > 55.7 µM (not active)
EC50 [2]: > 55.7 µM (not active)

COc1cccc(N(C(=O)c2nc3nccc(C)n3n2)c2nc3ccccc3s2)c1
EC50 [3]: 0.192 µM (active)
AC50 (HeLa): 43.5 µM (active)
EC50 [4]: 0.122 µM (active)
EC50 (H4): 0.166 µM (active)
EC50 [5]: 0.464 µM (active)
EC50 [6]: 0.248 µM (active)
EC50 [7]: 0.338 µM (active)

O=C(NCCCCc1ccccc1)c1cc([N+](=O)[O-])cc([N+](=O)[O-])c1
EC50 [8]: < 0.1 µM (active)
EC50 (cells): 0.258 µM (active)
EC50 [9]: > 60 µM (not active)
IC50 (Fatty acid synthase [10]): 12.4 µM (active)
IC50 (Fatty acid synthase [11]): 8 µM (active)

CN(C)S(=O)(=O)c1cccc(NC(=O)COC(=O)c2cc(-c3cccc(Br)c3)nc3ccccc23)c1
EC50 [12]: 19.1 µM (not active)
EC50 [13]: 18.1 µM (not active)
EC50 [14]: 21.1 µM (not active)
IC50 (Albumin): > 94.1 µM (inactive)

Cn1nc([N+](=O)[O-])nc1Sc1cccc2cccnc12
EC50 [8]: < 0.1 µM (active)
EC50 (cells): 0.115 µM (active)
AC50 (INS1): 2.59 µM (active)
EC50 [9]: > 60 µM (not active)

COc1ccc2c(COC(=O)c3[nH]nc4ccccc34)cc(=O)oc2c1
EC50 [3]: < 0.1 µM (inconclusive)
EC50 (H4): 0.409 µM (active)
EC50 [5]: 0.352 µM (active)
EC50 [6]: 0.752 µM (active)
EC50 [7]: 0.684 µM (active)

Cc1nnc(SCC(=O)NC2CCCC2)s1
EC50 [1]: > 55.7 µM (not active)
EC50 [2]: > 55.7 µM (not active)

Cc1ccc(OCc2nnc(SCC(=O)c3ccccc3)n2Cc2ccco2)cc1
EC50 [15]: > 20 µM (not active)
EC50 [16]: > 20 µM (not active)

CC1=CC(=Cc2sc3ccccc3[n+]2C)C=C(C)O1.[O-][Cl+3]([O-])([O-])[O-]
EC50 [17]: > 160 µM (inactive)
EC50 [8]: < 0.1 µM (active)
AC50 [18]: 5.78 µM (active)
EC50 (cells): 0.009 µM (active)
EC50 [9]: 32.3 µM (active)
IC50 [19]: 8.76 µM (active)
EC50 [20]: 0.491 µM (active)

COc1ccccc1C(=O)C1CCCN(C(=O)CSc2ccccn2)C1 (stereo unspecified)
EC50 [12]: > 79.4 µM (not active)
EC50 [13]: > 79.4 µM (not active)
EC50 [14]: > 79.4 µM (not active)

O=C(O)c1cc(O)c2c(c1)C(=O)c1cccc(O)c1C2=O [RHEIN]
AC50 [21]: > 30 µM (inactive)
EC50 [15]: 19.8 µM (active)
EC50 [22]: 21.6 µM (active)
EC50 [16]: 5.19 µM (active)
EC50 [23]: 29.2 µM (active)
